One data set in a line: Plasma stability, mouse. In kind it is in vitro ADME.
The nature of another data set: Plasma stability, human. In kind it is in vitro ADME.
The nature of data set [1]: Plasma protein binding, mouse. In kind it is in vitro ADME. Conditions: for Plasma Protein Binding (% Bound): Mouse.
In data set [2] the target is NOD1 association with RIP2, Bid, or SGT-1 (Homo sapiens, UniProt Q9Y239). The data set can be described thus: Co-immunoprecipitation of NOD1 with interacting proteins, HEK 293T. In kind it is cell-based. Conditions: over-expressing conditions, 5 μM.
Sequence of NOD1 association with RIP2, Bid, or SGT-1 (Q9Y239 whole entry): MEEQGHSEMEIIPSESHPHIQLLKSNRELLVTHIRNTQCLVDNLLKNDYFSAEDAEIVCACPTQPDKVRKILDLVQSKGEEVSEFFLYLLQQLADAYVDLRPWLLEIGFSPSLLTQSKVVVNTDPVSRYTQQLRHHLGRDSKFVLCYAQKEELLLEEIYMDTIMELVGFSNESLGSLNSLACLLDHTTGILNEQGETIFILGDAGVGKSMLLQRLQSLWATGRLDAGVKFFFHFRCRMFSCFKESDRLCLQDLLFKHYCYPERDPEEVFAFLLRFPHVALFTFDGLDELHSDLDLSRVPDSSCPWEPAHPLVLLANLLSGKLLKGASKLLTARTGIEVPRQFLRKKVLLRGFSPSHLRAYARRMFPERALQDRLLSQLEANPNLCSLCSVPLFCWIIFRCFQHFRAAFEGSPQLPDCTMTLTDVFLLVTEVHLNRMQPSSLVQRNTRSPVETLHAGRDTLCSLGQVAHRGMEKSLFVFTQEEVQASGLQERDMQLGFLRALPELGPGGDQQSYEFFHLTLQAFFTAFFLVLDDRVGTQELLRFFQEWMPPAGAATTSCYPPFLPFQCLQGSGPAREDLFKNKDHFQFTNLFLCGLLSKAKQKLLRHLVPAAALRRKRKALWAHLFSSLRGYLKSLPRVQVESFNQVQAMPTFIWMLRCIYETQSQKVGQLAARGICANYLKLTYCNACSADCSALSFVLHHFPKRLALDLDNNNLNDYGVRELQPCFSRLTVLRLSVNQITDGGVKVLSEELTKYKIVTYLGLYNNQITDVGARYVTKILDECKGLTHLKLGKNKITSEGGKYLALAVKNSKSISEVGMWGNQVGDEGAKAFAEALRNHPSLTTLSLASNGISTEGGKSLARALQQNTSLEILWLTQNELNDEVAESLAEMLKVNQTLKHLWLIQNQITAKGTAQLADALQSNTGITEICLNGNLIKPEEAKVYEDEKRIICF
Sequence of NOD1 association with RIP2, Bid, or SGT-1 (O43353 whole entry partner): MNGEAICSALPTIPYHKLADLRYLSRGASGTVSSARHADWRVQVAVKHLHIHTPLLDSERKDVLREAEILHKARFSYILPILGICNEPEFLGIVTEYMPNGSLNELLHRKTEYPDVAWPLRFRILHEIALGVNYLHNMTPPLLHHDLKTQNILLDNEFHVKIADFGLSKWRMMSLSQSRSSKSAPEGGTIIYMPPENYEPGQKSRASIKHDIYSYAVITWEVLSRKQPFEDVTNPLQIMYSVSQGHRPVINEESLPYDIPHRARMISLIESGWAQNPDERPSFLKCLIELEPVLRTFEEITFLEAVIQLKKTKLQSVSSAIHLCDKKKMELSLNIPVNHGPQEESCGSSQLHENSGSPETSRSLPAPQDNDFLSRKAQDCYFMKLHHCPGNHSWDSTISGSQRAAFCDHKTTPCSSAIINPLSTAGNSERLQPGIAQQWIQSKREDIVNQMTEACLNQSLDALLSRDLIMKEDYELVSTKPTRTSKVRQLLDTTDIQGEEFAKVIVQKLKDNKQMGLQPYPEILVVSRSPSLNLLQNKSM
Another data set has as its system inflammasome. The data set can be described thus: IL-1β secretion ELISA in RAW264.7 cells, inflammasome activators. In kind it is cell-based, mouse. The following applies: RAW264.7, 5 μM. An excerpt:
Supernatants were collected after either 2 hrs (Salmonella infection) or 4 hrs (all others) and IL-1β levels were quantified by ELISA (mean+SD; n=3).
Many NLRs form complexes with caspase-1, creating so-called “inflammasomes” responsible for proteolytic processing of inflammatory cytokine interleukin 1-beta (IL-1β). […] (FIGS. 1D and 1G), indicating a lack of promiscuity towards other NLRs.
ELISA: For IL-8 ELISA, MCF7 cells stably expressing His6-FLAG-tagged NOD1 or NOD2 were produced by lentivirus infection. Cells were cultured up to 90% confluency. Assays were initiated using 5,000 cells per well (in 100 μl volume) of a 96-well transparent culture plate. […] Supernatants were collected into a new 96-well plate and stored at −80° C. IL-8 levels were measured using a human IL-8 ELISA (BD OptEIA™ Human IL-8 ELISA Set, BD Biosciences). For IL-1β ELISA, assays were initiated using 50,000 RAW264.7 cells per well (in 100 μl of Opti-Mem medium, Invitrogen) of a 96-well transparent culture plate. Cell treatments were performed as indicated. IL-1β levels were measured using mouse IL-1 beta ELISA Ready-Set-Go!™ Kit (E-Biosciences).

The target of the next data set is T1, TLR9 (Homo sapiens, UniProt Q9NR96).
T1 sequence (Q9NR96 26-1032): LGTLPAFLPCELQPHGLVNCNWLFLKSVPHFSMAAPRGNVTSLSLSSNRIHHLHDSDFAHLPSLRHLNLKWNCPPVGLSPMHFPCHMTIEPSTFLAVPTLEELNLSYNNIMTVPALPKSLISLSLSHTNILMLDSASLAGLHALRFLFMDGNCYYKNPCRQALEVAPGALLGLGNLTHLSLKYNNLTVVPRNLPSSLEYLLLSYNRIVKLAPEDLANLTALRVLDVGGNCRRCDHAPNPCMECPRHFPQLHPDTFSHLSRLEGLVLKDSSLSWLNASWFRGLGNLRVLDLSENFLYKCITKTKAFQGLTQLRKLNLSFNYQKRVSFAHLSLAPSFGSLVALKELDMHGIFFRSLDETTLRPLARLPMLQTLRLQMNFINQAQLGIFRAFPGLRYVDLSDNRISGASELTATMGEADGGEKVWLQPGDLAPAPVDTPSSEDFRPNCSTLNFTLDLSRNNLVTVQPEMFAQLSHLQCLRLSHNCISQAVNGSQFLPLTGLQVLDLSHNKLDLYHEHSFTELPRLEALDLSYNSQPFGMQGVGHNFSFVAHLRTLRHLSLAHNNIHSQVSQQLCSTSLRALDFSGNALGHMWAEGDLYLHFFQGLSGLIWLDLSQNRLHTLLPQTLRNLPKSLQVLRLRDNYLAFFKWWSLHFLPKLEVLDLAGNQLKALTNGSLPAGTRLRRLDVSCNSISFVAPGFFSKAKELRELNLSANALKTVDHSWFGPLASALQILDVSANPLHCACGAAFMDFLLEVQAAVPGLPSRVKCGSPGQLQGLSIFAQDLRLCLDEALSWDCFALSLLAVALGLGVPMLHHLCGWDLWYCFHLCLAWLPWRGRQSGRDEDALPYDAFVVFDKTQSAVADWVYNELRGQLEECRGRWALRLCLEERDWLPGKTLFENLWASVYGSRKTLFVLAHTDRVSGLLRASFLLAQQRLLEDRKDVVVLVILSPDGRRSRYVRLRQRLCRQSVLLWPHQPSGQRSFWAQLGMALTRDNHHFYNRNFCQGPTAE
Kind of data set: NF-κB luciferase in 697 pre-B leukemia cells, TLR9 ligand CpG DNA. Conditions: 697 cells, 10 μM.

Description for TLR9: Luciferase activity was measured 24 h later (mean±SD; n=3).
Gene reporter assays: HEK293T or 697 cells containing integrated 5×NFκB-driven luciferase reporter gene were seeded into 96-well plates at 10^4 to 10^5 cells per well, and treated with respective inducers for 16 to 24 hours. […] The next day, cells were transfected with 50 ng pNF-κB-LUC (Clontech) and 5 ng Renilla luciferase gene driven by a constitutive TK promoter (pRL-TK; Promega) along with indicated plasmids. After 24 h of transfection in some experiments, cells were stimulated with various agents for 24 h or directly lysed and luciferase activities were assayed using the Dual Luciferase kit (Promega). The results for firefly luciferase activity were normalized to renilla luciferase activity. […] The mean results were obtained from triplicates.

As to `Cc1ccc(S(=O)(=O)n2c(N)nc3ccccc32)cc1` [Compound 1], the “Plasma Stability (% Remaining at 3 hrs)” value is 100/100 % Remaining in “Plasma stability, mouse” (Mouse, 3 hrs) and 100/100 % Remaining in “Plasma stability, human” (Human, 3 hrs). Also, the “Stability in plasma (in words)” value in “Plasma stability, mouse” (mouse) was “high”; in the data set “Plasma stability, human” (human), “high”. For the same compound, the “Plasma Protein Binding (% Bound)” value in data set [1] (1 μM) was 95.45 % Bound; in data set [1] (10 μM), 94.91 % Bound. Moreover, in data set [1] (mouse), the “Plasma protein binding (in words)” value is recorded as “high”. Further, the “Interference with NOD1 association with RIP2, Bid, or SGT-1” value in data set [2] is “did not interfere”. Besides, in the data set with inflammasome, the “Effect on IL-1β secretion induced by inflammasome activators” value was “did not inhibit”. The “Effect on NF-κB activity induced by TLR9 ligand CpG DNA” value on TLR9 is reported as “did not inhibit”.

For the origin of these results see patent US20120046329A1, “MODULATORS OF NOD1 AND NOD2 SIGNALING, METHODS OF IDENTIFYING MODULATORS OF NOD1 AND NOD2 SIGNALING, AND USES THEREOF” (Sanford-Burnham Medical Research Institute, priority 2010, published 2012).
